In the CheMixHub viscosity set:

Assay: xn = mol fraction of the nth substance listed

C[C@H](CCC(=O)[O-])[C@H]1CC[C@H]2[C@@H]3[C@H](O)C[C@@H]4C[C@H](O)CC[C@]4(C)[C@H]3C[C@H](O)[C@]12C.[Na+] + O
viscosity [mPa·s], 101 kPa
Details | x1 = 4.223e-05 | x1 = 8.385e-05 | x1 = 0.0001682 | x1 = 0.0003376 | x1 = 0.0004225 | x1 = 0.0005082 | x1 = 0.0006801 | x1 = 0.0008535
293.15 K | – | – | – | – | – | – | 1.082 | 1.105
298.15 K | – | 0.8984 | – | 0.9231 | – | 0.9405 | 0.9598 | 0.9782
303.15 K | 0.801 | 0.8044 | 0.8115 | 0.8262 | 0.8337 | – | 0.8579 | 0.875
308.15 K | – | 0.7264 | 0.7329 | 0.7454 | 0.7527 | 0.7593 | 0.774 | 0.7887
313.15 K | – | – | – | 0.6763 | 0.6826 | – | 0.7016 | 0.7154

CCCCOCCOCCOCCCC + CCCO
298.15 K, 101.33 kPa
Details | viscosity [mPa·s]
x1 = 0.0034 | 1.944
x1 = 0.0097 | 1.937
x1 = 0.0158 | 1.93
x1 = 0.0252 | 1.917
x1 = 0.0426 | 1.895
x1 = 0.0734 | 1.866
x1 = 0.0979 | 1.849
x1 = 0.1509 | 1.832
x1 = 0.1955 | 1.824
x1 = 0.2419 | 1.827
x1 = 0.2937 | 1.837
x1 = 0.3481 | 1.851
x1 = 0.3959 | 1.868
x1 = 0.4376 | 1.884
x1 = 0.4827 | 1.901
x1 = 0.54 | 1.925
x1 = 0.5983 | 1.949
x1 = 0.6416 | 1.968
x1 = 0.6954 | 1.99
x1 = 0.7531 | 2.016
x1 = 0.8095 | 2.039
x1 = 0.8656 | 2.061
x1 = 0.9083 | 2.079
x1 = 0.9447 | 2.096
x1 = 0.9742 | 2.111

CCCC[N+](CCCC)(CCCC)CCCC.[Br-] + CC(O)CO
101 kPa, x1 = 0.2
Details | viscosity [mPa·s]
298.15 K | 96.3
303.15 K | 71.6
308.15 K | 54.5
313.15 K | 42.1
318.15 K | 33.2
323.15 K | 26.6

CCCCC(=O)O + CCCCCCCCO
viscosity [mPa·s], 100 kPa
Details | x1 = 0.0831 | x1 = 0.1619 | x1 = 0.2381 | x1 = 0.3512 | x1 = 0.4418 | x1 = 0.5665 | x1 = 0.6539 | x1 = 0.7441 | x1 = 0.8551 | x1 = 0.9417
293.15 K | 8.14 | 7.31 | 6.64 | 5.83 | 5.25 | 4.52 | 4.04 | 3.56 | 2.99 | 2.55
303.15 K | 5.85 | 5.4 | 5.01 | 4.47 | 4.06 | 3.51 | 3.14 | 2.78 | 2.36 | 2.06
313.15 K | 4.28 | 3.97 | 3.7 | 3.33 | 3.06 | 2.7 | 2.46 | 2.21 | 1.93 | 1.71
323.15 K | 3.21 | 3.01 | 2.83 | 2.59 | 2.4 | 2.15 | 1.99 | 1.82 | 1.61 | 1.45

CCCCC(=O)O + c1ccccc1
298.15 K, 101 kPa
Details | viscosity [mPa·s]
x1 = 0.04 | 0.62
x1 = 0.078 | 0.639
x1 = 0.12 | 0.662
x1 = 0.16 | 0.687
x1 = 0.34 | 0.825
x1 = 0.43 | 0.92
x1 = 0.53 | 1.062
x1 = 0.75 | 1.436

CC(=O)[O-].C[N+]1(CC2CO2)CCCC1=O (centres undefined) + O
viscosity [mPa·s], 101 kPa
Details | 293.15 K | 298.15 K | 303.15 K | 308.15 K | 313.15 K
x1 = 0.0346 | 2.26 | 1.94 | 1.67 | 1.46 | 1.29
x1 = 0.0775 | 4.27 | 3.56 | 3.01 | 2.6 | 2.28
x1 = 0.1028 | 5.4 | 4.45 | 3.71 | 3.13 | 2.67
x1 = 0.2008 | 7.75 | 6.28 | 5.18 | 4.33 | 3.63
x1 = 0.3054 | 8.32 | 6.76 | 5.57 | 4.67 | 3.95
x1 = 0.4045 | 8.17 | 6.7 | 5.56 | 4.69 | 4
x1 = 0.5113 | 7.82 | 6.47 | 5.41 | 4.6 | 3.94
x1 = 0.6049 | 7.47 | 6.23 | 5.23 | 4.47 | 3.85
x1 = 0.7052 | 7.16 | 6.01 | 5.1 | 4.38 | 3.79
x1 = 0.8048 | 6.92 | 5.83 | 4.97 | 4.28 | 3.72
x1 = 0.9047 | 6.73 | 5.68 | 4.87 | 4.21 | 3.67
